The record followed here is patent publication US10988523B2, “Modified lipidated Relaxin B chain peptides and their therapeutic use” (Sanofi, priority 2018, dated 2021).

*1 amine or outer side, *2 acyl side, *3 side chain or, on linkers, in order; H or OH if unused. Where a SMILES comes first, the peptide text is derived from it. Side-chain parts run from the residue outwards. [ ]: non-standard residue; d: D form. The star is where a group is joined. X8 = CCCCCCCCCCCCCCCC(=O)N[C@@H](CCC(=O)N[C@@H](CCC(=O)N[C@@H](CCC(=O)NCCCOCCOCCOCCCNC(=O)CCC(=O)NCCCOCCOCCOCCCNC(=O)CCC(=O)NCCCOCCOCCOCCCN*)C(=O)O)C(=O)O)C(=O)O; X13 = CCCCCCCCCCCCCCCC(=O)N[C@@H](CCC(=O)N[C@@H](CCC(=O)N[C@@H](CCC(=O)NCCCC[C@H](NC(=O)COCC(=O)NCCCOCCOCCOCCCN*)C(N)=O)C(=O)O)C(=O)O)C(=O)O; Lys(Me3) = C[N+](C)(C)CCCC[C@H](N)C(=O)O; γGlu = O=C(O)[C@H](CCC(=O)[*:2])N[*:1]; 1Nal = N[C@@H](Cc1cccc2ccccc12)C(=O)O; Arg(Me) = CNC(=N)NCCC[C@H](N)C(=O)O; Stearoyl = CCCCCCCCCCCCCCCCCC(=O)*; Suc = O=C(CCC(=O)[*:2])[*:1]; αMeK = C[C@](N)(CCCCN)C(=O)O; Nle = CCCC[C@H](N)C(=O)O; AEEA = NCCOCCOCC(=O)O; Aib = CC(C)(N)C(=O)O

This assay concerns the target T1, RXFP1 (Homo sapiens, UniProt Q9HBX9).
T1 construct: OVCAR5 cells expressing endogenous RXFP1; endogenous in cells; host or cells: OVCAR5 cells
T1 sequence (Q9HBX9 1-757): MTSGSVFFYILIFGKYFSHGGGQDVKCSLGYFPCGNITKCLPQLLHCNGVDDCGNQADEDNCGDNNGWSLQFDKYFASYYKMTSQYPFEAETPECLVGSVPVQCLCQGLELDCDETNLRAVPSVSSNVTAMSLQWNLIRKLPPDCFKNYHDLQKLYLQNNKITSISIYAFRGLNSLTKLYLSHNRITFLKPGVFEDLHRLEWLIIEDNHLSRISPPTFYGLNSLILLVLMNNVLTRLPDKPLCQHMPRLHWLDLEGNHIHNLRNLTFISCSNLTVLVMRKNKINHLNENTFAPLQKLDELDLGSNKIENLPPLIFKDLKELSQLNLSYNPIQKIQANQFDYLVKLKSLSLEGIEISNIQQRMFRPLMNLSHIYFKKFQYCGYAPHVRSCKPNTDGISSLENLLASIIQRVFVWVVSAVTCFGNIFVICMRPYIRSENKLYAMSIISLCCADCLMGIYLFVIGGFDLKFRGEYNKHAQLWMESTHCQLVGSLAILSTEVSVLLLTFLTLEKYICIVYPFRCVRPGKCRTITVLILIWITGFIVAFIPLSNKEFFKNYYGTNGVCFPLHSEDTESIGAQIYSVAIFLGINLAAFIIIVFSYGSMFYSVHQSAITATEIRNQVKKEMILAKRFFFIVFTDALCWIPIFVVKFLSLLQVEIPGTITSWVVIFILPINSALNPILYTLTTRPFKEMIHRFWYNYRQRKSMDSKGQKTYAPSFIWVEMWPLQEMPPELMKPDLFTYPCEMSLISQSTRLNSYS
The assay can be described thus: OVCAR5 cAMP assay (HTRF), RXFP1 agonist activity. Format: cell-based. As to conditions: for EC50: OVCAR5 cells, cAMP HTRF, read-out: EC50 (nM), OVCAR 5 cells (cAMP); for Emax: OVCAR-5, maximal cAMP relative to H2-relaxin maximum (100%), read-out: EMax, OVCAR 5 cells (cAMP). In a few lines:
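OVCAR5 cells (endogenous RXFP1) pretreated 40 min at 37° C with 1 mM IBMX, then exposed to peptides in serum-free medium for 30 min at 37° C. Lysate cAMP read by HTRF; EC50 from variable-slope sigmoidal fit; Emax as % of H2-relaxin maximal cAMP in same run.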
In general terms: Cyclic AMP is a second messenger, typically raised through Gs and lowered through Gi signalling.

One may read the EC50 as the midpoint of the concentration-response curve. What is called Emax is the maximal effect, on the per cent scale that the assay sets. `CCCCCCCCCCCCCCCC(=O)N[C@@H](CCC(=O)N[C@@H](CCC(=O)N[C@@H](CCC(=O)NCCCOCCOCCOCCCNC(=O)CCC(=O)NCCCOCCOCCOCCCNC(=O)CCC(=O)NCCCOCCOCCOCCCNC(=O)CCC(=O)NCCCC[C@H](NC(=O)[C@H](CCCCNC(C)=O)NC(=O)[C@H](C)NC(=O)[C@H](CCCNC(=N)N)NC(=O)[C@](C)(CCCCN)NC(=O)[C@H](CO)NC(=O)[C@H](Cc1ccccc1)NC(=O)[C@@H](NC(=O)[C@H](CO)NC(=O)[C@H](CCCC)NC(=O)CNC(=O)[C@H](CCC(=O)O)NC(=O)C(C)(C)NC(=O)C(C)(C)NC(=O)[C@@H](NC(=O)[C@H](CCCCNC(C)=O)NC(=O)[C@H](C)NC(=O)[C@H](CCCNC(=N)N)NC(=O)[C@@H](NC(=O)[C@H](CCCCN)NC(=O)[C@H](CCC(=O)O)NC(=O)[C@H](CCCNC(=N)N)NC(=O)CNC(=O)[C@H](CCC(=O)O)NC(=O)[C@H](CC(C)C)NC(C)=O)C(C)C)[C@@H](C)CC)[C@@H](C)O)C(N)=O)C(=O)O)C(=O)O)C(=O)O` [compound 183] (Ac-LEGREKVRAK(Ac)I[Aib][Aib]EG[Nle]STFS[αMeK]RAK(Ac)K([Suc-X8])-NH2): the EC50 amounted to 0.08 nM and the Emax turned out to be 94%.

Turning to `CCCCCCCCCCCCCCCCCC(=O)N[C@@H](CCC(=O)N[C@@H](CCC(=O)N[C@@H](CCC(=O)NCCOCCOCC(=O)NCCOCCOCC(=O)NCCOCCOCC(=O)NCCCC[C@H](NC(=O)[C@H](CC(C)C)NC(=O)[C@H](CCCCN)NC(=O)[C@H](CCCNC(=N)N)NC(=O)C(C)(C)NC(=O)[C@H](CO)NC(=O)[C@H](Cc1cccc2ccccc12)NC(=O)[C@@H](NC(=O)[C@H](CO)NC(=O)[C@H](CCCC)NC(=O)CNC(=O)[C@H](CCC(=O)O)NC(=O)C(C)(C)NC(=O)C(C)(C)NC(=O)[C@@H](NC(=O)[C@H](CCCCNC(C)=O)NC(=O)[C@H](C)NC(=O)[C@H](CCCNC(=N)N)NC(=O)[C@@H](NC(=O)[C@H](CCCCN)NC(=O)[C@H](CCC(=O)O)NC(=O)[C@H](CCCNC(=N)N)NC(=O)CNC(=O)[C@H](CCC(=O)O)NC(=O)[C@H](CC(C)C)NC(C)=O)C(C)C)[C@@H](C)CC)[C@@H](C)O)C(N)=O)C(=O)O)C(=O)O)C(=O)O` [compound 87] (Ac-LEGREKVRAK(Ac)I[Aib][Aib]EG[Nle]ST[1Nal]S[Aib]RKLK([AEEA-AEEA-AEEA-γGlu-γGlu-γGlu-Stearoyl])-NH2), the maximal response (Emax) is 71%.

Take `CCCCCCCCCCCCCCCC(=O)N[C@@H](CCC(=O)N[C@@H](CCC(=O)N[C@@H](CCC(=O)NCCCC[C@H](NC(=O)COCC(=O)NCCCOCCOCCOCCCNC(=O)[C@H](CCCCNC(C)=O)NC(=O)[C@H](CCCCN)NC(=O)[C@H](CCCNC(=N)N)NC(=O)C(C)(C)NC(=O)[C@H](CO)NC(=O)[C@H](Cc1c[nH]c2ccccc12)NC(=O)[C@@H](NC(=O)[C@H](CO)NC(=O)[C@H](CCC(N)=O)NC(=O)CNC(=O)[C@H](CCC(=O)O)NC(=O)C(C)(C)NC(=O)C(C)(C)NC(=O)[C@@H](NC(=O)[C@H](CCCCNC(C)=O)NC(=O)[C@H](C)NC(=O)[C@H](CCCNC(=N)N)NC(=O)[C@@H](NC(=O)[C@H](CCCCN)NC(=O)[C@H](CCC(=O)O)NC(=O)[C@H](CCCNC(=N)N)NC(=O)CNC(=O)[C@H](CCC(=O)O)NC(=O)[C@H](CC(C)C)NC(C)=O)C(C)C)[C@@H](C)CC)[C@@H](C)O)C(N)=O)C(=O)O)C(=O)O)C(=O)O` [compound 176] (Ac-LEGREKVRAK(Ac)I[Aib][Aib]EGQSTWS[Aib]RKK(Ac)-X13): the Emax turned out to be 90%.

Take `CCCCCCCCCCCCCCCCCC(=O)N[C@@H](CCC(=O)N[C@@H](CCC(=O)N[C@@H](CCC(=O)NCCOCCOCC(=O)NCCOCCOCC(=O)NCCOCCOCC(=O)NCCCC[C@H](NC(=O)[C@H](CCCCN)NC(=O)[C@H](CCCCN)NC(=O)[C@H](CCCNC(=N)N)NC(=O)C(C)(C)NC(=O)[C@H](CO)NC(=O)[C@H](Cc1c[nH]c2ccccc12)NC(=O)[C@@H](NC(=O)[C@H](CO)NC(=O)[C@H](CCCC)NC(=O)CNC(=O)[C@H](CCC(=O)O)NC(=O)C(C)(C)NC(=O)C(C)(C)NC(=O)[C@@H](NC(=O)[C@H](CCC(N)=O)NC(=O)[C@H](C)NC(=O)[C@H](CCCNC(=N)N)NC(=O)[C@@H](NC(=O)[C@H](CCCCN)NC(=O)[C@H](CCC(=O)O)NC(=O)[C@H](CCCNC(=N)N)NC(=O)CNC(=O)[C@H](CCC(=O)O)NC(=O)[C@H](CC(C)C)NC(C)=O)C(C)C)[C@@H](C)CC)[C@@H](C)O)C(N)=O)C(=O)O)C(=O)O)C(=O)O` [compound 75] (Ac-LEGREKVRAQI[Aib][Aib]EG[Nle]STWS[Aib]RKKK([AEEA-AEEA-AEEA-γGlu-γGlu-γGlu-Stearoyl])-NH2): the EC50 turned out to be 0.07 nM and the Emax came out at 88%.

For `CCCCCCCCCCCCCCCCCC(=O)N[C@@H](CCC(=O)N[C@@H](CCC(=O)N[C@@H](CCC(=O)NCCOCCOCC(=O)NCCOCCOCC(=O)NCCOCCOCC(=O)NCCCC[C@H](NC(=O)[C@H](CCCCNC(C)=O)NC(=O)[C@H](C)NC(=O)[C@H](C)NC(=O)C(C)(C)NC(=O)[C@H](CO)NC(=O)[C@H](Cc1c[nH]c2ccccc12)NC(=O)[C@@H](NC(=O)[C@H](CO)NC(=O)[C@H](CCCC)NC(=O)CNC(=O)[C@H](CCC(=O)O)NC(=O)C(C)(C)NC(=O)C(C)(C)NC(=O)[C@@H](NC(=O)[C@H](CCCCNC(C)=O)NC(=O)[C@H](C)NC(=O)[C@H](CCCNC(=N)N)NC(=O)[C@@H](NC(=O)[C@H](CCCCN)NC(=O)[C@H](CCC(=O)O)NC(=O)[C@H](CCCNC(=N)N)NC(=O)CNC(=O)[C@H](CCC(=O)O)NC(=O)[C@H](CC(C)C)NC(C)=O)C(C)C)[C@@H](C)CC)[C@@H](C)O)C(N)=O)C(=O)O)C(=O)O)C(=O)O` [compound 155] (Ac-LEGREKVRAK(Ac)I[Aib][Aib]EG[Nle]STWS[Aib]AAK(Ac)K([AEEA-AEEA-AEEA-γGlu-γGlu-γGlu-Stearoyl])-NH2), the Emax is 95%.

In the case of `CCCCCCCCCCCCCCCCCC(=O)N[C@@H](CCC(=O)N[C@@H](CCC(=O)N[C@@H](CCC(=O)NCCOCCOCC(=O)NCCOCCOCC(=O)NCCOCCOCC(=O)NCCCC[C@H](NC(=O)[C@H](CCCCNC(C)=O)NC(=O)[C@H](CCCC[N+](C)(C)C)NC(=O)[C@H](CCCNC(=N)NC)NC(=O)C(C)(C)NC(=O)[C@H](CO)NC(=O)[C@H](Cc1c[nH]c2ccccc12)NC(=O)[C@@H](NC(=O)[C@H](CO)NC(=O)[C@H](CCCC)NC(=O)CNC(=O)[C@H](CCC(=O)O)NC(=O)C(C)(C)NC(=O)C(C)(C)NC(=O)[C@@H](NC(=O)[C@H](CCCCNC(C)=O)NC(=O)[C@H](C)NC(=O)[C@H](CCCNC(=N)N)NC(=O)[C@@H](NC(=O)[C@H](CCCCN)NC(=O)[C@H](CCC(=O)O)NC(=O)[C@H](CCCNC(=N)N)NC(=O)CNC(=O)[C@H](CCC(=O)O)NC(=O)[C@H](CC(C)C)NC(C)=O)C(C)C)[C@@H](C)CC)[C@@H](C)O)C(N)=O)C(=O)O)C(=O)O)C(=O)O` [compound 137] (Ac-LEGREKVRAK(Ac)I[Aib][Aib]EG[Nle]STWS[Aib][Arg(Me)][Lys(Me3)]K(Ac)K([AEEA-AEEA-AEEA-γGlu-γGlu-γGlu-Stearoyl])-NH2), the concentration giving a half-maximal response (EC50) was found to be 0.21 nM and the Emax came to 92%.

As to `CCCCCCCCCCCCCCCCCC(=O)N[C@@H](CCC(=O)N[C@@H](CCC(=O)N[C@@H](CCC(=O)NCCOCCOCC(=O)NCCOCCOCC(=O)NCCOCCOCC(=O)NCCOCCOCC(=O)NCCCC[C@H](NC(=O)[C@H](CCCCNC(C)=O)NC(=O)[C@H](C)NC(=O)[C@H](CCCNC(=N)N)NC(=O)[C@](C)(CCCCN)NC(=O)[C@H](CO)NC(=O)[C@H](Cc1c[nH]c2ccccc12)NC(=O)[C@@H](NC(=O)[C@H](CO)NC(=O)[C@H](CCCC)NC(=O)CNC(=O)[C@H](CCC(=O)O)NC(=O)C(C)(C)NC(=O)C(C)(C)NC(=O)[C@@H](NC(=O)[C@H](CCCCNC(C)=O)NC(=O)[C@H](C)NC(=O)[C@H](CCCNC(=N)N)NC(=O)[C@@H](NC(=O)[C@H](CCCCN)NC(=O)[C@H](CCC(=O)O)NC(=O)[C@H](CCCNC(=N)N)NC(=O)CNC(=O)[C@H](CCC(=O)O)NC(=O)[C@H](CC(C)C)NC(C)=O)C(C)C)[C@@H](C)CC)[C@@H](C)O)C(N)=O)C(=O)O)C(=O)O)C(=O)O` [compound 135] (Ac-LEGREKVRAK(Ac)I[Aib][Aib]EG[Nle]STWS[αMeK]RAK(Ac)K([AEEA-AEEA-AEEA-AEEA-γGlu-γGlu-γGlu-Stearoyl])-NH2), the Emax is 97%.
